Results published in patent US9260408B2, “Dihydroquinoline-2-one derivatives” (Hoffmann-La Roche Inc., priority 2011, dated 2016).

Tests used:
[1] = target: T1, human CYP11B2 (Homo sapiens, UniProt P19099); assay: G-402 cellular enzyme assay, human CYP11B2 (aldosterone release, HTRF); assay type: cell-based; details: G-402 cells expressing human CYP11B2; 1 μM Deoxycorticosterone
T1 construct: expressed in transfected cells
T1 sequence (P19099 25-503): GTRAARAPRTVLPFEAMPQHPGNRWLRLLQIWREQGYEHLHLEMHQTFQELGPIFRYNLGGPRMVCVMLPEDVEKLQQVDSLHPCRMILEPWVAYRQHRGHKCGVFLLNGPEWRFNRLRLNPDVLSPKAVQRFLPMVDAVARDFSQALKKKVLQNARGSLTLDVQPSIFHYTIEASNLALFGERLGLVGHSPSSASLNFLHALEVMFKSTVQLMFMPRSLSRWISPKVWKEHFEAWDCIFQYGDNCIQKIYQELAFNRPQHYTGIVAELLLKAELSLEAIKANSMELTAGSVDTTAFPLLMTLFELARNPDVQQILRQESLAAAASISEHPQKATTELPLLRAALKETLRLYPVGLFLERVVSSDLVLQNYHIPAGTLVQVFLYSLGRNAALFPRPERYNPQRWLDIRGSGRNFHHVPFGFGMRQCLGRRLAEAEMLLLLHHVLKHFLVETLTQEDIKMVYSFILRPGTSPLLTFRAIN
Outline: (§1)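 EC50 comes from least-squares fitting of a 4-parameter MMF curve to steroid product levels, measured by HTRF as aldosterone for CYP11B2 or cortisol for CYP11B1. Stably transfected G-402 host cells were given substrate (1 μM deoxycorticosterone or deoxycortisol, respectively) with inhibitor for 16 h in medium with 2.5% charcoal-treated FCS.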

[2] = target: T2, human CYP11B1 (Homo sapiens, UniProt P15538); assay: G-402 cellular enzyme assay, human CYP11B1 (cortisol release, HTRF); assay type: cell-based; details: G-402 cells expressing human CYP11B1; 1 μM Deoxycortisol
T2 construct: expressed in transfected cells
T2 sequence (P15538 25-503): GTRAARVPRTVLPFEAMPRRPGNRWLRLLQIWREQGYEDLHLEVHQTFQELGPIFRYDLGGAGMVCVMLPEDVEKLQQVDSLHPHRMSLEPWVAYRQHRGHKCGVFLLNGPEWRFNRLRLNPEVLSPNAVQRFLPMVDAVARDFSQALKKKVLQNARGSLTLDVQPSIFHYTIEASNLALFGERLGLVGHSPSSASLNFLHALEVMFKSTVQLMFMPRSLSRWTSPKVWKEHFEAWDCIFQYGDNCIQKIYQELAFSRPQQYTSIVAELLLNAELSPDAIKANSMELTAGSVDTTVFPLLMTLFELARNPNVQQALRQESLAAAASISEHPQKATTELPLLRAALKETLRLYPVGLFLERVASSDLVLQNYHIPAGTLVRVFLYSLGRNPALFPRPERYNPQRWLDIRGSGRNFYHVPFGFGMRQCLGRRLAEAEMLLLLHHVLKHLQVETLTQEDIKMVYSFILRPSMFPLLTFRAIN
Outline: as §1

[3] = test system: rat model of chronic kidney disease; details: cited from earlier work; for plasma aldosterone: FAD286: 4 weeks of treatment, spironolactone: 4 and 8 weeks of treatment; for renal effects (albuminuria, azotemia, renovascular hypertrophy, glomerular injury, PAI-1 and osteopontin mRNA, tubulointerstitial fibrosis): angiotensin II and high salt treatment; for angiotensin II and salt-stimulated PAI-1 mRNA expression in the aorta and the heart: rat, in vivo
[4] = test system: rats with experimental heart failure; details: rat, in vivo; cited from earlier work
[5] = target: CYP11B2 (Homo sapiens, UniProt P19099); details: patients with primary aldosteronism, cited from earlier work

CN1C(=O)CCc2cc(-c3cncc(C4=CCN(C(=O)OC(C)(C)C)CC4)c3)ccc21 [Example 247, 5-(1-Methyl-2-oxo-1,2,3,4-tetrahydro-quinolin-6-yl)-3′,6′-dihydro-2′H-[3,4′]bipyridinyl-1′-carboxylic acid tert-butyl ester]
EC50 [1]: 0.005 µM
EC50 [2]: 0.069 µM

CC(=O)N1CC[C@H](Oc2cncc(-c3ccc4c(c3)CCC(=O)N4C)c2)C1 [Example 254, 6-[5-((S)-1-Acetyl-pyrrolidin-3-yloxy)-pyridin-3-yl]-1-methyl-3,4-dihydro-1H-quinolin-2-one]
EC50 [1]: 0.001 µM
EC50 [2]: 0.049 µM

CN1C(=O)CCc2cc(-c3cncc(O[C@H]4CCN(C(=O)c5cnn(C)c5)C4)c3)ccc21 [Example 255, 1-Methyl-6-{5-[(S)-1-(1-methyl-1H-pyrazole-4-carbonyl)-pyrrolidin-3-yloxy]-pyridin-3-yl}-3,4-dihydro-1H-quinolin-2-one]
EC50 [1]: 0.013 µM
EC50 [2]: 1.32 µM

CCOC(=O)N1CC[C@H](Oc2cncc(-c3ccc4c(c3)CCC(=O)N4C)c2)C1 [Example 256, (S)-3-[5-(1-Methyl-2-oxo-1,2,3,4-tetrahydro-quinolin-6-yl)-pyridin-3-yloxy]-pyrrolidine-1-carboxylic acid ethyl ester]
EC50 [1]: 0.008 µM
EC50 [2]: 0.158 µM

Cc1oncc1C(=O)NCc1cncc(-c2cc3c(cc2F)N(C)C(=O)CC3)c1C [Example 259, 5-Methyl-isoxazole-4-carboxylic acid [5-(7-fluoro-1-methyl-2-oxo-1,2,3,4-tetrahydro-quinolin-6-yl)-4-methyl-pyridin-3-ylmethyl]-amide]
EC50 [1]: 0.001 µM
EC50 [2]: 0.154 µM

Cn1c(=O)ccc2cc(-c3cncc(C4(N)CC4)c3)ccc21 [Example 262, 6-[5-(1-Amino-cyclopropyl)-pyridin-3-yl]-1-methyl-1H-quinolin-2-one]
EC50 [1]: 0.084 µM
EC50 [2]: 1.82 µM

CCC(=O)NCc1cncc(-c2ccc3c(c2)CCC(=O)N3C)c1Cl [Example 265, N-[4-Chloro-5-(1-methyl-2-oxo-1,2,3,4-tetrahydro-quinolin-6-yl)-pyridin-3-ylmethyl]-propionamide]
EC50 [1]: 0.009 µM
EC50 [2]: 0.623 µM

Cc1noc(C)c1C(=O)NCCOc1cncc(-c2cc3c(cc2F)N(C)C(=O)CC3)c1 [Example 267, 3,5-Dimethyl-isoxazole-4-carboxylic acid {2-[5-(7-fluoro-1-methyl-2-oxo-1,2,3,4-tetrahydro-quinolin-6-yl)-pyridin-3-yloxy]-ethyl}-amide]
EC50 [1]: 0.001 µM
EC50 [2]: 0.236 µM

N#Cc1ccc(C2CCCc3cncn32)cc1 (stereo not shown) [FAD286]
plasma aldosterone [3]: reduced
renal effects (albuminuria, azotemia, renovascular hypertrophy, glomerular injury, PAI-1 and osteopontin mRNA, tubulointerstitial fibrosis) [3]: prevented these renal effects
angiotensin II and salt-stimulated PAI-1 mRNA expression in the aorta and the heart [3]: not
blood pressure and cardiovascular function and structure [4]: improved
kidney function and morphology [4]: improve

N#Cc1ccc([C@H]2CCc3cncn32)c(F)c1 [LCI699]
circulating aldosterone levels ([5]; oral): significantly lower
blood pressure [5]: mildly decreased
hypokalemia [5]: corrected
selectivity (effects on the glucocorticoid axis) [5]: poor selectivity

CC(=O)S[C@@H]1CC2=CC(=O)CC[C@]2(C)[C@H]2CC[C@@]3(C)[C@@H](CC[C@@]34CCC(=O)O4)[C@H]12 [spironolactone]
plasma aldosterone [3]: increased
renal effects (albuminuria, azotemia, renovascular hypertrophy, glomerular injury, PAI-1 and osteopontin mRNA, tubulointerstitial fibrosis) [3]: prevented these renal effects
angiotensin II and salt-stimulated PAI-1 mRNA expression in the aorta and the heart [3]: enhanced
